From patent US20140135310A1, “SULPHONAMIDE DERIVATIVES OF ALICYCLIC AMINES FOR THE TREATMENT OF CENTRAL NERVOUS SYSTEM DISEASES” (Adamed Sp. z o.o., priority 2011, published 2014) come the findings set out here.

Test [1] addresses dopaminergic receptors D2 (Homo sapiens, UniProt P14416). The test is described as follows: Radioligand binding assay, dopaminergic D2 receptors. Particulars: binding assay, test compound 1×10^−6 M. The method, boiled down:
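Displacement of radioligand from human dopamine D2, D3 or D4.4 receptors, counted by scintillation; specific binding is total minus binding under excess unlabelled ligand. IC50 values come from Hill curve fits of percent inhibition, then converted to Ki by Cheng-Prusoff using Scatchard-derived KD.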

Test [2] deals with dopaminergic receptors D3 (Homo sapiens, UniProt P35462). The test is described as follows: Radioligand binding assay, dopaminergic D3 receptors. Particulars: test compound 1×10^−6 M. A digest of the protocol:
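Scintillation read-out. Specific = total − nonspecific (excess cold ligand). Data as % of control specific binding / % inhibition; IC50 by Hill fit; Ki = IC50/(1+L/KD), KD from Scatchard plot.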

Test [3] deals with T1, 5-HT1A receptor (rat hippocampus) (Rattus norvegicus, UniProt P19327).
T1 construct: hippocampus; from tissue; host or cells: rat hippocampus
T1 sequence (P19327 1-422): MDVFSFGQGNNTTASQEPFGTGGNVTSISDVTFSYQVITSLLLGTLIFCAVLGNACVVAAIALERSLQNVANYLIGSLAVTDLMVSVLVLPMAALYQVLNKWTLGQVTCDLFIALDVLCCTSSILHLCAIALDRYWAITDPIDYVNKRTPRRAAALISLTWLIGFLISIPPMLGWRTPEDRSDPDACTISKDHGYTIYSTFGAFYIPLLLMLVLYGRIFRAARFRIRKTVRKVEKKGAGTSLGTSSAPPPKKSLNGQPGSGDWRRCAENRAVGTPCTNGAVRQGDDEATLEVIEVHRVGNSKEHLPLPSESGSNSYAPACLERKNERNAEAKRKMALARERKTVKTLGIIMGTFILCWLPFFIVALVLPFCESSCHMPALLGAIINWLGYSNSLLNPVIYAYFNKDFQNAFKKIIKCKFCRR
The test is described as follows: Radioligand binding assay, serotoninergic 5-HT1A receptors. To be noted: binding assay result in %, Table 5a.

The target in test [4] is T2, 5-HT2A receptor (Homo sapiens, UniProt P28223).
T2 construct: purchased PerkinElmer
The test is described as follows: Radioligand binding assay, serotoninergic 5-HT2A receptors. To be noted: binding assay result in %, Table 5a. A digest of the protocol:
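Competition curves from scintillation-counted specific binding (total minus binding with excess unlabelled ligand) were Hill-fitted to give IC50, converted to Ki via Cheng-Prusoff using Scatchard-derived Kd.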

The target of test [5] is T3, 5-HT6 receptor (Homo sapiens, UniProt P50406).
T3 construct: purchased PerkinElmer
The test is described as follows: Radioligand binding assay, serotoninergic 5-HT6 receptors. Particulars: binding assay result in %, Table 5a. The method, boiled down: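 Values are Ki from Cheng–Prusoff, taking IC50 from Hill nonlinear regression of competition curves and KD from a Scatchard plot. Specific binding was total minus binding with excess unlabelled ligand. Radioligand displacement was detected by scintillation counting, and data were also reported as percent of control specific binding.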

The target in test [6] is T4, 5-HT7 receptor (Homo sapiens, UniProt P34969).
T4 construct: purchased PerkinElmer
The test is described as follows: Radioligand binding assay, serotoninergic 5-HT7 receptors. Particulars: binding assay result in %, Table 5a. A digest of the protocol:
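Ki values used the Cheng–Prusoff equation, with KD from Scatchard analysis, applied to IC50 from Hill fits of human 5-HT7 radioligand competition curves. Bound radioligand was counted by scintillation, and excess unlabelled ligand set the non-specific binding.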

In test [7] the test system is α1 adrenergic receptors (rat cerebral cortex). The test is described as follows: Radioligand binding assay, adrenergic α1 receptors. Particulars: test compound 1×10^−6 M. The method, boiled down: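 Values derive from radioligand displacement, with non-specific binding defined by excess cold ligand and detection by scintillation. Hill-fit IC50s were converted to Ki via Cheng-Prusoff using Scatchard-derived Kd; percent inhibition of control specific binding also reported.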

The target of test [8] is T5, serotonin transporter (SERT) (Homo sapiens, UniProt P31645).
T5 construct: expressed in transfected cells; host or cells: CHO cells
The test is described as follows: Radioligand binding assay, serotonin transporter (SERT). To be noted: binding assay, test compound 1×10^−6 M. A digest of the protocol: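 Values are derived from competition curves fitted by the Hill equation to give IC50, then converted to Ki by Cheng-Prusoff with radioligand Kd from Scatchard analysis. Specific binding equals total minus non-specific (excess cold ligand), counted by scintillation, and is also expressed as percent inhibition of control.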

T5 sequence (P31645 whole entry): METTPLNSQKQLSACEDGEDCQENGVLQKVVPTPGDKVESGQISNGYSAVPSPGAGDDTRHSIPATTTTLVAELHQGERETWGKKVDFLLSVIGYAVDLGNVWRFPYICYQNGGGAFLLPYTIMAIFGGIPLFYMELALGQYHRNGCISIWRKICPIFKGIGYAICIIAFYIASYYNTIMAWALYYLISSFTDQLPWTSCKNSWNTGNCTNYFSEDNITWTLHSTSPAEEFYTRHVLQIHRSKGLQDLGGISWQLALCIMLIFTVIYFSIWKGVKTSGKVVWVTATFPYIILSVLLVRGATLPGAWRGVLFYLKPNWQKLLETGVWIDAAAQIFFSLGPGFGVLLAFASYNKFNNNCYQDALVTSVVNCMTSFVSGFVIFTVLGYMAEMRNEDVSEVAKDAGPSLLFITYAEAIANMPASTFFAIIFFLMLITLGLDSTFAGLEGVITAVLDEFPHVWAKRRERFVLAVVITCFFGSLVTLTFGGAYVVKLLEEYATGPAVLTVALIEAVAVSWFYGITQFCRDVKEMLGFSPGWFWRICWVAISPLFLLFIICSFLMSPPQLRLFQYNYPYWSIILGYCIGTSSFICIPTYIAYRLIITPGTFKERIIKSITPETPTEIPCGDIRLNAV
Chain of dopaminergic receptors D3 (P35462 whole entry): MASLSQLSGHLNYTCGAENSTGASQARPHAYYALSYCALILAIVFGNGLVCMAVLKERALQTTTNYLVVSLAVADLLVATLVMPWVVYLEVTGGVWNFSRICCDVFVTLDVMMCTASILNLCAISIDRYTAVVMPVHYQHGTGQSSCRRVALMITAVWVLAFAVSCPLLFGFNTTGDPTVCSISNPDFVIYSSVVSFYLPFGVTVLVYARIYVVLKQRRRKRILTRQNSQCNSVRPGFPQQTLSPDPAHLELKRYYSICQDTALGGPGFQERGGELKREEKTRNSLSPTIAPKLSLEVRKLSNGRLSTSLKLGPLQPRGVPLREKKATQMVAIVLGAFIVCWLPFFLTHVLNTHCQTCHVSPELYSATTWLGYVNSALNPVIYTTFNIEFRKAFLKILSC
T3 sequence (P50406 whole entry): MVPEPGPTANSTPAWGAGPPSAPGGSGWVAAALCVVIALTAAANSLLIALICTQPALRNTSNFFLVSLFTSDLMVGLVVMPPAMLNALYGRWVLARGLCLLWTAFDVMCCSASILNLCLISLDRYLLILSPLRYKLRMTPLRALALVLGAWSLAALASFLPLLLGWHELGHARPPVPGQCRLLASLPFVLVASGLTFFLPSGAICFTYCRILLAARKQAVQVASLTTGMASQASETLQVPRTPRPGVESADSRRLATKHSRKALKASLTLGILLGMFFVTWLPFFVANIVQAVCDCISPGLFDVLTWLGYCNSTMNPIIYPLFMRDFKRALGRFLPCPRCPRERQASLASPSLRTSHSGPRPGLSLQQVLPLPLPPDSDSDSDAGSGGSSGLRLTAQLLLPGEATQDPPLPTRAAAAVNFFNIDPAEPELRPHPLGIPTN
T2 sequence (P28223 whole entry): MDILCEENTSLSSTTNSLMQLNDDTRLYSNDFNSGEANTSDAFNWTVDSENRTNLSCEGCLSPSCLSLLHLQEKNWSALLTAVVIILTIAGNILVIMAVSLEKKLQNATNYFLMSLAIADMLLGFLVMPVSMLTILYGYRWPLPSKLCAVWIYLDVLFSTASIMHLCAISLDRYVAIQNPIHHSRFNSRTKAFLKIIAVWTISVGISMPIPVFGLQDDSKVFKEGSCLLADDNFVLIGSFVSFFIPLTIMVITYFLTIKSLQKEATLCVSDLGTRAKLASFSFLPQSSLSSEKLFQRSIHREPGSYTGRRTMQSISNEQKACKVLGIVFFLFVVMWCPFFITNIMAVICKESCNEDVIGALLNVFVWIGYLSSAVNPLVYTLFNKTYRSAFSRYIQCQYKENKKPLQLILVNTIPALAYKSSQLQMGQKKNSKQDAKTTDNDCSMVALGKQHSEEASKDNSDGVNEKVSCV
Chain of dopaminergic receptors D2 (P14416 whole entry): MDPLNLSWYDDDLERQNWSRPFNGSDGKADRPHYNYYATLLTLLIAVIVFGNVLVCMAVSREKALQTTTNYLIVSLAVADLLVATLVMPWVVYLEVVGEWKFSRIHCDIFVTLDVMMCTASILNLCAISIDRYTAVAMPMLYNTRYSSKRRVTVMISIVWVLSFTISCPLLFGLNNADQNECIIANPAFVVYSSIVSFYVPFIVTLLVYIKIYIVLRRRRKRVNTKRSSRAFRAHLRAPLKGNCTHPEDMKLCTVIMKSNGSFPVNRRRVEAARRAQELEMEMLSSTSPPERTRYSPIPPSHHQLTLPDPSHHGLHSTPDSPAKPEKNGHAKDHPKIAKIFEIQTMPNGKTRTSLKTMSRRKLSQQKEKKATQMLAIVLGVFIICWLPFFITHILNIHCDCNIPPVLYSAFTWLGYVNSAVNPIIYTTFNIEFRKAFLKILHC
T4 sequence (P34969 whole entry): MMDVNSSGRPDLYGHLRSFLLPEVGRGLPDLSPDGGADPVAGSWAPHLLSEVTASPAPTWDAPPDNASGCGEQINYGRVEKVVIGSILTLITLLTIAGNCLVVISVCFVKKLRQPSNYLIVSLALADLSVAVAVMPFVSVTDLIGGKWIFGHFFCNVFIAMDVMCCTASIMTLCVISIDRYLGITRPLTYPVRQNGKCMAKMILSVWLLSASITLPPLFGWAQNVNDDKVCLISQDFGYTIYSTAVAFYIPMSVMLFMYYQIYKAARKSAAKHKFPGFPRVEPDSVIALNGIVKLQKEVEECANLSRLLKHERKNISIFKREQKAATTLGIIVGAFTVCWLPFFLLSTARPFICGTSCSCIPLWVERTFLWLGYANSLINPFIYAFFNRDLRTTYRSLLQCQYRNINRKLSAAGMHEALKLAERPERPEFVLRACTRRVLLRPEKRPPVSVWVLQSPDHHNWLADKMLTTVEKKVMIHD

For the molecule `O=S(=O)(NCC1CN(CCOc2cccc3c2OCCO3)C1)c1cccc2ccccc12` [Compound 176, N-[[1-[2-(2,3-Dihydro-1,4-benzodioxin-5-yloxy)ethyl]azetidin-3-yl]methyl]-naphthalene-1-sulphonamide], the inhibition (commonly the relative decrease from the control value, in per cent) at 1 µM was determined as 21% in test [1]; 8% in test [2]; 98% in test [3]; 35% in test [4]; 14% in test [5]; 87% in test [6]. Also, in test [8], the inhibition at 1 µM was -2%. In addition, the “α1 [%]” value in test [7] worked out at 51%.

With `O=S(=O)(NCC1CN(CCOc2cccc3c2OCCO3)C1)c1ccc2ccccc2c1` [Compound 177, N-[[1-[2-(2,3-Dihydro-1,4-benzodioxin-5-yloxy)ethyl]azetidin-3-yl]methyl]-naphthalene-2-sulphonamide], the inhibition at 1 µM in test [1] turned out to be 13%; in test [2] it was 42%; in test [3], 97%; in test [4], 66%; in test [5], 44%; in test [6], 88%. Also, the inhibition at 1 µM in test [8] turned out to be 25%. The “α1 [%]” value in test [7] worked out at 55%.

As to `O=S(=O)(NCC1CN(CCOc2cccc3c2OCCO3)C1)c1ccc(-c2ccccc2)cc1` [Compound 178, N-[[1-[2-(2,3-Dihydro-1,4-benzodioxin-5-yloxy)ethyl]azetidin-3-yl]methyl]-4-phenyl-benzenesulphonamide], the inhibition at 1 µM in test [1] worked out at 8%; in test [2], 25%; in test [3] it was 96%; in test [4], 73%; in test [5], 21%; in test [6] it was 89%. Further, the inhibition at 1 µM in test [8] is -6%. In addition, in test [7], the “α1 [%]” value is given as 20%.

`O=S(=O)(NCC1CN(CCOc2cccc3c2OCCO3)C1)c1ccc(Cl)cc1` [Compound 179, 4-Chloro-N-[[1-[2-(2,3-dihydro-1,4-benzodioxin-5-yloxy)ethyl]azetidin-3-yl]methyl]benzenesulphonamide]: the inhibition at 1 µM in test [1] is 6%; in test [2] it was 40%; in test [3] it was 92%; in test [4], 57%; in test [5], -15%; in test [6] it was 90%. In test [8], the inhibition at 1 µM was -8%. Also, the “α1 [%]” value in test [7] worked out at 61%.

`O=S(=O)(NCC1CN(CCOc2cccc3c2OCCO3)C1)c1ccc(C(F)(F)F)cc1` [Compound 180, N-[[1-[2-(2,3-Dihydro-1,4-benzodioxin-5-yloxy)ethyl]azetidin-3-yl]methyl]-4-(trifluoromethyl)benzenesulphonamide]: the inhibition at 1 µM in test [1] was found to be 23%; in test [2], 46%; in test [3] it was 93%; in test [4], 68%; in test [5], 31%; in test [6] it was 94%. In test [8], the inhibition at 1 µM was found to be 14%. In addition, the “α1 [%]” value in test [7] is recorded as 39%.

Take `O=S(=O)(NCC1CN(CCOc2cccc3c2OCCO3)C1)c1ccc(F)cc1` [Compound 182, N-[[1-[2-(2,3-Dihydro-1,4-benzodioxin-5-yloxy)ethyl]azetidin-3-yl]methyl]-4-fluoro-benzenesulphonamide]: the inhibition at 1 µM in test [1] stood at 33%; in test [2], 45%; in test [3] it was 63%; in test [4], 61%; in test [5], 31%; in test [6] it was 95%. Moreover, the inhibition at 1 µM in test [8] was -7%. In test [7], the “α1 [%]” value was 78%.

On to `O=S(=O)(NCC1CN(CCOc2cccc3c2OCCO3)C1)c1cccs1` [Compound 184, N-[[1-[2-(2,3-Dihydro-1,4-benzodioxin-5-yloxy)ethyl]azetidin-3-yl]methyl]-thiophene-2-sulphonamide], for which the inhibition at 1 µM in test [1] came out at 24%; in test [2], 39%; in test [3], 71%; in test [4], 76%; in test [5] it was 20%; in test [6], 89%. In addition, the inhibition at 1 µM in test [8] is 1%. Also, the “α1 [%]” value in test [7] is listed as 88%.

Consider `O=S(=O)(NCC1CN(CCOc2cccc3c2OCCO3)C1)c1ccc(Br)cc1` [Compound 185, 4-Bromo-N-[[1-[2-(2,3-dihydro-1,4-benzodioxin-5-yloxy)ethyl]azetidin-3-yl]methyl]benzenesulphonamide], for which the inhibition at 1 µM was 25% in test [1]; 0% in test [2]; 88% in test [3]; 39% in test [4]; 23% in test [5]; 90% in test [6]. For the same molecule, the inhibition at 1 µM in test [8] was 23%. In test [7], the “α1 [%]” value came out at 34%.

Consider `Cn1ccc2cc(S(=O)(=O)NCC3CN(CCOc4cccc5c4OCCO5)C3)ccc21` [Compound 187, N-[[1-[2-(2,3-Dihydro-1,4-benzodioxin-5-yloxy)ethyl]azetidin-3-yl]methyl]-1-methyl-indole-5-sulphonamide], for which the inhibition at 1 µM came out at 56% in test [1]; 48% in test [2]; 78% in test [3]; 93% in test [4]; 44% in test [5]; 98% in test [6]. Moreover, the inhibition at 1 µM in test [8] worked out at 69%. Moreover, the “α1 [%]” value in test [7] is on record as 88%.

Regarding `Cn1ccc2c(S(=O)(=O)NCC3CN(CCOc4cccc5c4OCCO5)C3)cccc21` [Compound 188, N-[[1-[2-(2,3-Dihydro-1,4-benzodioxin-5-yloxy)ethyl]azetidin-3-yl]methyl]-1-methyl-indole-4-sulphonamide], the inhibition at 1 µM in test [1] amounted to 52%; in test [2], 51%; in test [3], 101%; in test [4], 89%; in test [5], 14%; in test [6], 91%. The inhibition at 1 µM in test [8] is 44%. The “α1 [%]” value in test [7] was determined as 91%.

`O=C1Cc2cc(S(=O)(=O)NCC3CN(CCOc4cccc5c4OCCO5)C3)ccc2N1` [Compound 189, N-[[1-[2-(2,3-Dihydro-1,4-benzodioxin-5-yloxy)ethyl]azetidin-3-yl]methyl]-2-oxo-indoline-5-sulphonamide]: the inhibition at 1 µM in test [1] turned out to be 71%; in test [2] it was 61%; in test [3] it was 112%; in test [4], 74%; in test [5], 46%; in test [6] it was 90%. The inhibition at 1 µM in test [8] was 41%. Moreover, the “α1 [%]” value in test [7] is 71%.

As to `O=S(=O)(NCC1CN(CCOc2cccc3c2OCCO3)C1)c1csc2ccccc12` [Compound 190, N-[[1-[2-(2,3-Dihydro-1,4-benzodioxin-5-yloxy)ethyl]azetidin-3-yl]methyl]-benzothiophene-3-sulphonamide], the inhibition at 1 µM in test [1] stood at 51%; in test [2] it was 62%; in test [3], 100%; in test [4], 68%; in test [5], 34%; in test [6], 97%. For the same molecule, the inhibition at 1 µM in test [8] worked out at 31%. Besides, the “α1 [%]” value in test [7] was 86%.
